Earlier results in patent US20110117175A1, “SWEET ANALGESIC FOR USE IN MEDICAL PROCEDURES OR TREATMENTS” (priority 2009, published 2011).

Experiments:
[1] = tested on: patients older than infants
[2] = minimal amount of sugar used
[3] = 1 to 2 drops on tongue or pacifier

blood glucose levels [2]: no increase
Structure (SMILES): OC[C@H]1O[C@@](CO)(O[C@H]2O[C@H](CO)[C@@H](O)[C@H](O)[C@H]2O)[C@@H](O)[C@@H]1O [sucrose]
use as an analgesic ([1]; adult patients (studies of adult woman)): ineffective | pain relief ([1]; patients older than infants): unsuccessful | duration of infant or neonate response (infant or neonate; [3]): up to 10 minutes | time to infant or neonate response (infant or neonate; [3]): up to 10 seconds | pain response (infant or neonate; infant or neonate, given prior to a painful procedure): decreases the pain response
